Results published in patent publication US20080247962A1, “Pharmaceutical Compositions Comprising Higher Primary Aliphatic Alcohols and Hmg Coa Reductase Inhibitor and Process of Preparation Thereof” (PANACEA BIOTEC LTD., priority 2004, published 2008).

Tested on: Casein-Starch-Induced Hypercholesterolemia in Rabbits
Test: Casein-starch-induced hypercholesterolemia in rabbits (serum lipid profile)
Type: in vivo
Parameters: key to LDL-C level: serum LDL-C in mg/dL, mean±S.E.M
Conditions: for serum total cholesterol level / LDL-C level: mean±S.E.M.; for LDL-C level: in mg/dL (unit assumed)
Experimental: Casein-Starch-Induced Hypercholesterolemia in Rabbits
The observed unexpected synergistic lipid lowering effect of combination of Extract-A and atorvastatin is evidenced by the test conducted in rabbits. Rabbits of either sex were procured from Central Animal House facility; Panacea Biotec Ltd., India. Animals weighing 1.5-2.0 Kg at the time of testing were used. All animals were dosed sequentially by the oral route with Extract-A and/or atorvastatin suspended in 0.5% of carboxymethyl cellulose (CMC). A dosing volume of 2 ml/kg was used for each sequential suspension.
The fasting serum lipid profile (TC, TGs, LDL-C, HDL-C) was estimated before initiation of the experiment. […] Hypercholesterolemia was induced by feeding rabbits with wheat casein-starch diet (g/kg) containing wheat flour 333, cellulose 300, casein 270, water 20, maize oil 10, and mineral mixture (Kroon et al., 1982) for 60 days. Feed consumption was restricted to 100 g/day per animal. The cholesterol level was estimated every 15 days. After 60 days animals with total cholesterol level >150 mg/dl were randomized to treatment (n=6/group). Thereafter, various doses of Extract-A and/or atorvastatin were administered for another 60 days during which animals were fed with casein-starch diet. Blood samples were collected from fasted rabbits and analyzed for any alteration in serum lipid profile after 60 days of test compound(s) administration.
All the data are expressed as mean±S.E.M. (Standard Error of Mean). Student t-test was-used to compare the lipid parameters between animals fed with standard and hypercholesterolemic diet. The difference between various drug treated groups was analyzed by ANOVA followed by Dunnett's test. A value of P<0.05 was considered as statistically significant.

[1] = atorvastatin 2.5 mg/kg p.o., day 0, pre-dose
[2] = atorvastatin 2.5 mg/kg p.o., day 15, pre-dose
[3] = atorvastatin 2.5 mg/kg p.o., day 30, pre-dose
[4] = atorvastatin 2.5 mg/kg p.o., day 60, start of dosing
[5] = atorvastatin 2.5 mg/kg p.o., day 75 (dosing from day 60)
[6] = atorvastatin 2.5 mg/kg p.o., day 90 (dosing from day 60)
[7] = atorvastatin 2.5 mg/kg p.o., day 105 (dosing from day 60)
[8] = atorvastatin 2.5 mg/kg p.o., day 120 (dosing from day 60)
[9] = atorvastatin 5 mg/kg p.o., day 0, pre-dose
[10] = atorvastatin 5 mg/kg p.o., day 15, pre-dose
[11] = atorvastatin 5 mg/kg p.o., day 30, pre-dose
[12] = atorvastatin 5 mg/kg p.o., day 60, start of dosing
[13] = atorvastatin 5 mg/kg p.o., day 75 (dosing from day 60)
[14] = atorvastatin 5 mg/kg p.o., day 90 (dosing from day 60)
[15] = atorvastatin 5 mg/kg p.o., day 105 (dosing from day 60)
[16] = atorvastatin 5 mg/kg p.o., day 120 (dosing from day 60)
[17] = single agents: Extract-A 100 and 200 mg/kg p.o., atorvastatin 2.5 and 5 mg/kg p.o.

CC(C)c1c(C(=O)Nc2ccccc2)c(-c2ccccc2)c(-c2ccc(F)cc2)n1CC[C@@H](O)C[C@@H](O)CC(=O)O [At, atorvastatin]
serum total cholesterol level [1]: 56.83 ± 4.84 mg/dL | LDL-C level [1]: 21.4 ± 8.04 | serum total cholesterol level [2]: 96.00 ± 2.08 mg/dL | LDL-C level [2]: 61.03 ± 1.87 | serum total cholesterol level [3]: 144.83 ± 6.6 mg/dL | LDL-C level [3]: 106.6 ± 5.85 | serum total cholesterol level [4]: 204.66 ± 6.58 mg/dL | LDL-C level [4]: 166.07 ± 4.97 | serum total cholesterol level [5]: 202.5 ± 15.15 mg/dL | LDL-C level [5]: 165.53 ± 14.81 | serum total cholesterol level [6]: 205.83 ± 13.31 mg/dL | LDL-C level [6]: 166.47 ± 13.66 | serum total cholesterol level [7]: 201.33 ± 11.49 mg/dL | LDL-C level [7]: 159.3 ± 12.53 | serum total cholesterol level [8]: 201.16 ± 10.4 mg/dL | LDL-C level [8]: 158.00 ± 12.22 | serum total cholesterol level [9]: 68.50 ± 5.99 mg/dL | LDL-C level [9]: 30.33 ± 6.44 | serum total cholesterol level [10]: 101.16 ± 1.88 mg/dL | LDL-C level [10]: 61.83 ± 1.77 | serum total cholesterol level [11]: 142.16 ± 10.37 mg/dL | LDL-C level [11]: 104.17 ± 11.76 | serum total cholesterol level [12]: 226.67 ± 9.74 mg/dL | LDL-C level [12]: 188.67 ± 10.00 | serum total cholesterol level [13]: 213.16 ± 5.69 mg/dL | LDL-C level [13]: 175.07 ± 5.06 | serum total cholesterol level [14]: 201.83 ± 5.81 mg/dL | LDL-C level [14]: 161.3 ± 6.04 | serum total cholesterol level [15]: 198.17 ± 6.65 mg/dL | LDL-C level [15]: 155.17 ± 6.87 | serum total cholesterol level [16]: 195.50 ± 5.31 mg/dL | LDL-C level [16]: 149.1 ± 4.72 | LDL-C in comparison to hypercholesterolemic control rabbits [17]: reversed | TC in comparison to hypercholesterolemic control rabbits [17]: reversed
